Test results taken from patent US11180462B2, “Microbiocidal oxadiazole derivatives” (SYNGENTA PARTICIPATIONS AG, priority 2015, dated 2021).

Key:
[1] = tested on: Puccinia recondita f. Sp. Tritici; assay: Fungicidal activity against Puccinia recondita f. sp. tritici / wheat / leaf disc preventative (brown rust); format: in vivo; settings: foliar, 200 ppm in the applied formulation, wheat leaf segments, preventative, compared to untreated control leaf disks, read-out: disease control
Method in brief: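 200 ppm spray on wheat cv. Kanzler leaf segments; spore inoculation +1 day; 19° C., 75% rh, 12 h/12 h light cycle; single rating of % control vs untreated at 7 to 9 days.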

[2] = tested on: Puccinia recondita f. Sp. Tritici; assay: Fungicidal activity against Puccinia recondita f. sp. tritici / wheat / leaf disc curative (brown rust); format: in vivo; settings: foliar, 24 h, 200 ppm in the applied formulation, wheat leaf segments, curative (applied 1 day after inoculation), compared to untreated control leaf disks, read-out: disease control
Method in brief: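 Segments of wheat cv. Kanzler were laid on agar and inoculated with a spore suspension of the rust, then held in darkness at 19° C and 75% relative humidity. One day later the water-diluted formulated compound was applied, with incubation continued under a 12 h light/dark cycle.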

[3] = tested on: Phakopsora Pachyrhizi; assay: Fungicidal activity against Phakopsora pachyrhizi / soybean / leaf disc preventative (Asian soybean rust); format: in vivo; settings: foliar, 200 ppm in the applied formulation, soybean leaf disks, compared to untreated control leaf disks, read-out: disease control
Method in brief: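 Scored 12 to 14 days post-application as percent control relative to untreated check discs, rust spores were sprayed under the disc one day after compound treatment. Incubation: 20°C, 75% rh, first 24–36 h in darkness, then 12 h daily light; discs kept on water agar.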

[4] = tested on: Glomerella lagenarium (Colletotrichum lagenarium); assay: Fungicidal activity against Glomerella lagenarium (Colletotrichum lagenarium) liquid culture / cucumber / preventative (anthracnose); format: cell-based; settings: Colletotrichum orbiculare; 20 ppm in the applied formulation; liquid culture (PDB), growth inhibition measured photometrically after 3 to 4 days; compared to untreated control; read-out: disease control
Method in brief: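 Percent activity against the untreated check was derived from photometric growth measurements made 2 to 7 days after conidia in potato dextrose broth were combined with compound at 20 ppm. Cultures were kept dark at 24 °C and 96% humidity.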

CCCN(Cc1ccc(-c2noc(C(F)(F)F)n2)cc1)C(=O)CCOC [Compound 1.655, 3-methoxy-N-propyl-N-[[4-[5-(trifluoromethyl)-1,2,4-oxadiazol-3-yl]phenyl]methyl]-propanamide]
≥ 80%: pest or weed control at 200 ppm [1] | pest or weed control at 200 ppm [2] | pest or weed control at 200 ppm [3] | inhibition of growth at 20 ppm [4]

CCCN(Cc1ccc(-c2noc(C(F)(F)F)n2)cc1)C(=O)C1CCC1 [Compound 1.656, N-propyl-N-[[4-[5-(trifluoromethyl)-1,2,4-oxadiazol-3-yl]phenyl]methyl]-cyclobutane-carboxamide]
≥ 80%: pest or weed control at 200 ppm [1] | pest or weed control at 200 ppm [2] | pest or weed control at 200 ppm [3] | inhibition of growth at 20 ppm [4]

CCCN(Cc1ccc(-c2noc(C(F)(F)F)n2)cc1)C(=O)C1(C)CC1 [Compound 1.658, 1-methyl-N-propyl-N-[[4-[5-(trifluoromethyl)-1,2,4-oxadiazol-3-yl]phenyl]methyl]-cyclopropane-carboxamide]
≥ 80%: pest or weed control at 200 ppm [1] | pest or weed control at 200 ppm [2] | pest or weed control at 200 ppm [3] | inhibition of growth at 20 ppm [4]

CCCN(Cc1ccc(-c2noc(C(F)(F)F)n2)cc1)C(=O)C(C)CC (centres unmarked) [Compound 1.659, 2-methyl-N-propyl-N-[[4-[5-(trifluoromethyl)-1,2,4-oxadiazol-3-yl]phenyl]methyl]-butanamide]
≥ 80%: pest or weed control at 200 ppm [1] | pest or weed control at 200 ppm [2] | pest or weed control at 200 ppm [3] | inhibition of growth at 20 ppm [4]

CCCN(Cc1ccc(-c2noc(C(F)(F)F)n2)cc1)C(=O)C1(C)COC1 [Compound 1.660, 3-methyl-N-propyl-N-[[4-[5-(trifluoromethyl)-1,2,4-oxadiazol-3-yl]phenyl]methyl]-oxetane-3-carboxamide]
≥ 80%: pest or weed control at 200 ppm [1] | pest or weed control at 200 ppm [2] | pest or weed control at 200 ppm [3] | inhibition of growth at 20 ppm [4]

CCCN(Cc1ccc(-c2noc(C(F)(F)F)n2)cc1)C(=O)C(CC)COC (centres unmarked) [Compound 1.661, 2-(methoxymethyl)-N-propyl-N-[[4-[5-(trifluoromethyl)-1,2,4-oxadiazol-3-yl]phenyl]methyl]-butanamide]
≥ 80%: pest or weed control at 200 ppm [1] | pest or weed control at 200 ppm [2] | pest or weed control at 200 ppm [3] | inhibition of growth at 20 ppm [4]

CCCN(Cc1ccc(-c2noc(C(F)(F)F)n2)cc1)C(=O)CCCOC [Compound 1.662, 4-methoxy-N-propyl-N-[[4-[5-(trifluoromethyl)-1,2,4-oxadiazol-3-yl]phenyl]methyl]-butanamide]
≥ 80%: pest or weed control at 200 ppm [1] | pest or weed control at 200 ppm [2] | pest or weed control at 200 ppm [3] | inhibition of growth at 20 ppm [4]

CCCN(Cc1ccc(-c2noc(C(F)(F)F)n2)cc1)C(=O)C1CCCO1 (centres unmarked) [Compound 1.663, N-propyl-N-[[4-[5-(trifluoromethyl)-1,2,4-oxadiazol-3-yl]pheny1]methyl]-tetrahydrofuran-2-carboxamide]
≥ 80%: pest or weed control at 200 ppm [1] | pest or weed control at 200 ppm [2] | pest or weed control at 200 ppm [3] | inhibition of growth at 20 ppm [4]

CCCN(Cc1ccc(-c2noc(C(F)(F)F)n2)cc1)C(=O)CC#N [Compound 1.664, 2-cyano-N-propyl-N-[[4-[5-(trifluoromethyl)-1,2,4-oxadiazol-3-yl]phenyl]methyl]-acetamide]
≥ 80%: pest or weed control at 200 ppm [1] | pest or weed control at 200 ppm [2] | pest or weed control at 200 ppm [3] | inhibition of growth at 20 ppm [4]

CCCN(Cc1ccc(-c2noc(C(F)(F)F)n2)cc1)C(=O)C1(C#N)CC1 [Compound 1.665, 1-cyano-N-propyl-N-[[4-[5-(trifluoromethyl)-1,2,4-oxadiazol-3-yl]phenyl]methyl]-cyclopropane-carboxamide]
≥ 80%: pest or weed control at 200 ppm [1] | pest or weed control at 200 ppm [2] | pest or weed control at 200 ppm [3] | inhibition of growth at 20 ppm [4]

CCCN(Cc1ccc(-c2noc(C(F)(F)F)n2)cc1)C(=O)C(C)OC (centres unmarked) [Compound 1.666, 2-methoxy-N-propyl-N-[[4-[5-(trifluoromethyl)-1,2,4-oxadiazol-3-yl]phenyl]methyl]-propanamide]
≥ 80%: pest or weed control at 200 ppm [1] | pest or weed control at 200 ppm [2] | pest or weed control at 200 ppm [3] | inhibition of growth at 20 ppm [4]

CCCN(Cc1ccc(-c2noc(C(F)(F)F)n2)cc1)C(C)=O [Compound 1.668, N-propyl-N-[[4-[5-(trifluoromethyl)-1,2,4-oxadiazol-3-yl]phenyl]methyl]-acetamide]
≥ 80%: pest or weed control at 200 ppm [1] | pest or weed control at 200 ppm [2] | pest or weed control at 200 ppm [3] | inhibition of growth at 20 ppm [4]

CCCN(Cc1ccc(-c2noc(C(F)(F)F)n2)cc1)C(=O)CC1CC1 [Compound 1.669, 2-cyclopropyl-N-propyl-N-[[4-[5-(trifluoromethyl)-1,2,4-oxadiazol-3-yl]phenyl]methyl]-acetamide]
≥ 80%: pest or weed control at 200 ppm [1] | pest or weed control at 200 ppm [2] | pest or weed control at 200 ppm [3] | inhibition of growth at 20 ppm [4]

CC(C)C(=O)N(Cc1ccc(-c2noc(C(F)(F)F)n2)cc1)C(C)C [Compound 1.670, N-isopropyl-2-methyl-N-[[4-[5-(trifluoromethyl)-1,2,4-oxadiazol-3-yl]phenyl]methyl]-propanamide]
≥ 80%: pest or weed control at 200 ppm [1] | pest or weed control at 200 ppm [2] | pest or weed control at 200 ppm [3] | inhibition of growth at 20 ppm [4]

CC(C)N(Cc1ccc(-c2noc(C(F)(F)F)n2)cc1)C(=O)C1CC1(F)F (centres unmarked) [Compound 1.671, 2,2-difluoro-N-isopropyl-N-[[4-[5-(trifluoromethyl)-1,2,4-oxadiazol-3-yl]phenyl]methyl]-cyclopropane-carboxamide]
≥ 80%: pest or weed control at 200 ppm [1] | pest or weed control at 200 ppm [2] | pest or weed control at 200 ppm [3] | inhibition of growth at 20 ppm [4]

CC(C)N(Cc1ccc(-c2noc(C(F)(F)F)n2)cc1)C(=O)C1CCOC1 (centres unmarked) [Compound 1.673, N-isopropyl-N-[[4-[5-(trifluoromethyl)-1,2,4-oxadiazol-3-yl]phenyl]methyl]-tetrahydrofuran-3-carboxamide]
≥ 80%: pest or weed control at 200 ppm [1] | pest or weed control at 200 ppm [2] | pest or weed control at 200 ppm [3] | inhibition of growth at 20 ppm [4]

COCCC(=O)N(Cc1ccc(-c2noc(C(F)(F)F)n2)cc1)C(C)C [Compound 1.674, N-isopropyl-3-methoxy-N-[[4-[5-(trifluoromethyl)-1,2,4-oxadiazol-3-yl]phenyl]methyl]-propanamide]
≥ 80%: pest or weed control at 200 ppm [1] | pest or weed control at 200 ppm [2] | pest or weed control at 200 ppm [3] | inhibition of growth at 20 ppm [4]

CC(C)N(Cc1ccc(-c2noc(C(F)(F)F)n2)cc1)C(=O)C1CCC1 [Compound 1.675, N-isopropyl-N-[[4-[5-(trifluoromethyl)-1,2,4-oxadiazol-3-yl]phenyl]methyl]-cyclobutane-carboxamide]
≥ 80%: pest or weed control at 200 ppm [1] | pest or weed control at 200 ppm [2] | pest or weed control at 200 ppm [3] | inhibition of growth at 20 ppm [4]

CC1CC1C(=O)N(Cc1ccc(-c2noc(C(F)(F)F)n2)cc1)C(C)C (centres unmarked) [Compound 1.676, N-isopropyl-2-methyl-N-[[4-[5-(trifluoromethyl)-1,2,4-oxadiazol-3-yl]phenyl]methyl]-cyclopropane-carboxamide]
≥ 80%: pest or weed control at 200 ppm [1] | pest or weed control at 200 ppm [2] | pest or weed control at 200 ppm [3] | inhibition of growth at 20 ppm [4]

CC(C)N(Cc1ccc(-c2noc(C(F)(F)F)n2)cc1)C(=O)C1(C)CC1 [Compound 1.677, N-isopropyl-1-methyl-N-[[4-[5-(trifluoromethyl)-1,2,4-oxadiazol-3-yl]phenyl]methyl]-cyclopropane-carboxamide]
≥ 80%: pest or weed control at 200 ppm [1] | pest or weed control at 200 ppm [2] | pest or weed control at 200 ppm [3] | inhibition of growth at 20 ppm [4]

CCC(C)C(=O)N(Cc1ccc(-c2noc(C(F)(F)F)n2)cc1)C(C)C (centres unmarked) [Compound 1.678, N-isopropyl-2-methyl-N-[[4-[5-(trifluoromethyl)-1,2,4-oxadiazol-3-yl]phenyl]methyl]-butanamide]
≥ 80%: pest or weed control at 200 ppm [1] | pest or weed control at 200 ppm [2] | pest or weed control at 200 ppm [3] | inhibition of growth at 20 ppm [4]

CC(C)N(Cc1ccc(-c2noc(C(F)(F)F)n2)cc1)C(=O)C1(C)COC1 [Compound 1.679, N-isopropyl-3-methyl-N-[[4-[5-(trifluoromethyl)-1,2,4-oxadiazol-3-yl]phenyl]methyl]-oxetane-3-carboxamide]
≥ 80%: pest or weed control at 200 ppm [1] | pest or weed control at 200 ppm [2] | pest or weed control at 200 ppm [3] | inhibition of growth at 20 ppm [4]

CCC(COC)C(=O)N(Cc1ccc(-c2noc(C(F)(F)F)n2)cc1)C(C)C (centres unmarked) [Compound 1.680, N-isopropyl-2-(methoxymethyl)-N-[[4-[5-(trifluoromethyl)-1,2,4-oxadiazol-3-yl]phenyl]methyl]-butanamide]
≥ 80%: pest or weed control at 200 ppm [1] | pest or weed control at 200 ppm [2] | pest or weed control at 200 ppm [3] | inhibition of growth at 20 ppm [4]
